We go through two cell lines from the supplement of paper PMC10307832.

What all share (experiment): relative viability (nuclei count vs DMSO), 5 days (fraction); higher = more cells survive
Compound in the test “SGI-1776 + Luminespib”: CN1CCC(CNc2ccc3ncc(-c4cccc(OC(F)(F)F)c4)n3n2)CC1 [SGI-1776] + CCNC(=O)c1noc(-c2cc(C(C)C)c(O)cc2O)c1-c1ccc(CN2CCOCC2)cc1 [Luminespib] (partner 0.01 µM)
The method, boiled down: (§1)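 Each reported value is a median over duplicate plates. It expresses relative viability: treated-well nuclei count divided by vehicle-well nuclei count. Lung cancer cell lines in 1536-well plates were dosed by pin tool a day after seeding, alone with one drug or with a fixed anchor-drug dose plus five library-drug doses (not always all listed) in √10 steps, and nuclei were counted after 5 days.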

Compound in the test “SGI-1776 + Olaparib”: CN1CCC(CNc2ccc3ncc(-c4cccc(OC(F)(F)F)c4)n3n2)CC1 [SGI-1776] + O=C(c1cc(Cc2n[nH]c(=O)c3ccccc23)ccc1F)N1CCN(C(=O)C2CC2)CC1 [Olaparib] (partner 8 µM)
The method, boiled down: as §1

Compound in the test “Entinostat + Lapatinib”: Nc1ccccc1NC(=O)c1ccc(CNC(=O)OCc2cccnc2)cc1 [Entinostat] + CS(=O)(=O)CCNCc1ccc(-c2ccc3ncnc(Nc4ccc(OCc5cccc(F)c5)c(Cl)c4)c3c2)o1 [Lapatinib] (partner 2 µM)
The method, boiled down:
as §1

Compound in the test “Entinostat + Decitabine”: Nc1ccccc1NC(=O)c1ccc(CNC(=O)OCc2cccnc2)cc1 [Entinostat] + Nc1ncn([C@H]2C[C@H](O)[C@@H](CO)O2)c(=O)n1 [Decitabine] (partner 2 µM)
The method, boiled down: as §1

For SK-MES-1, the relative viability with SGI-1776 + Luminespib (first compound 0.08 µM) is 0.856; with SGI-1776 + Luminespib (first compound 0.8 µM) it was 0.849; in the test with SGI-1776 + Luminespib (first compound 2.53 µM), 0.395; with SGI-1776 + Luminespib (first compound 8 µM), 0.386; in the test with SGI-1776 + Olaparib (first compound 0.08 µM) it was 0.772; with SGI-1776 + Olaparib (first compound 0.8 µM) it was 0.744. Moreover, the relative viability was found to be 0.664 with SGI-1776 + Olaparib (first compound 2.53 µM); 0.347 with SGI-1776 + Olaparib (first compound 8 µM); 0.511 with Entinostat + Lapatinib (first compound 0.02 µM); 0.525 in the test with Entinostat + Lapatinib (first compound 0.06325 µM); 0.494 with Entinostat + Lapatinib (first compound 0.2 µM); 0.488 with Entinostat + Lapatinib (first compound 0.6325 µM). Also, the relative viability in the test with Entinostat + Lapatinib (first compound 2 µM) turned out to be 0.395; with Entinostat + Decitabine (first compound 0.02 µM), 0.362; with Entinostat + Decitabine (first compound 0.06325 µM) it was 0.36; with Entinostat + Decitabine (first compound 0.2 µM), 0.434; with Entinostat + Decitabine (first compound 0.6325 µM), 0.303; with Entinostat + Decitabine (first compound 2 µM), 0.331.
As for SW 1573, the relative viability in the test with SGI-1776 + Luminespib (first compound 0.08 µM) was found to be 0.281; with SGI-1776 + Luminespib (first compound 0.8 µM), 0.653; with SGI-1776 + Luminespib (first compound 2.53 µM), 0.314; with SGI-1776 + Luminespib (first compound 8 µM), 0.185; with SGI-1776 + Olaparib (first compound 0.08 µM), 0.381; with SGI-1776 + Olaparib (first compound 0.8 µM) it was 0.428. Further, the relative viability with SGI-1776 + Olaparib (first compound 2.53 µM) was found to be 0.475; with SGI-1776 + Olaparib (first compound 8 µM) it was 0.297; with Entinostat + Lapatinib (first compound 0.02 µM), 1.42; in the test with Entinostat + Lapatinib (first compound 0.06325 µM) it was 1.23; with Entinostat + Lapatinib (first compound 0.2 µM), 1.19; in the test with Entinostat + Lapatinib (first compound 0.6325 µM), 1.29. Further, the relative viability with Entinostat + Lapatinib (first compound 2 µM) is 0.949; with Entinostat + Decitabine (first compound 0.02 µM), 0.526; with Entinostat + Decitabine (first compound 0.06325 µM) it was 0.46; with Entinostat + Decitabine (first compound 0.2 µM), 0.486; in the test with Entinostat + Decitabine (first compound 0.6325 µM), 0.311; with Entinostat + Decitabine (first compound 2 µM) it was 0.22.
